Test results: paper PMC10208956, “Microbial peptides activate tumour-infiltrating lymphocytes in glioblastoma” (Nature, 2023)

Legend:
Format in all cases: cell-based, human
[1] = system: sorted CD4+ PE and FITC TCRVβ+ TILs; experiment: Proliferation of TCRBV-sorted CD4+ TILs (without TCRBV6.1 and TCRBV6.2); conditions: sheet 6b
Description: TILs expressing specific TCRBVs were isolated from bulk TILs using a panel of 22 fluorescently labelled TCRBV antibodies that detect 27 different TCRBVs. Twelve TCRBV antibodies were labelled with PE and 10 with FITC (Beckman Coulter). […] After another wash, cells were stained with CD4 (1:100) (APC anti-human CD4, eBioscience), CD8 (1:100) (Pacific blue anti-human CD8, BioLegend), TCRBV-PE (1:25) (Beckman Coulter) and TCRBV-FITC (1:25) (Beckman Coulter) antibodies (Supplementary Table 12) for 30 min. Finally, cells were sorted, seeded at 5 × 10^4 cells per well in T cell medium without h-IL-2 and rested for 1 day before stimulation with 2 × 10^5 cells per well of irradiated autologous PBMCs (45 Gy) and peptide (10 µM).
Two populations of CD4^+ PE-TCRVβ^+ and CD4^+ FITC-TCRVβ^+ were sorted and later mixed together. […] Specific amount of each cytokine/chemokine (pg/ml) was calculated by subtracting the cytokines in the negative control cultures (no peptide control). Source data

[2] = system: bulk TILs (patient 1635WI); experiment: Cytokine and chemokine secretion of bulk TILs stimulated with IPdBPs; set-up: key to CD40 Ligand / Flt-3 Ligand / GM-CSF / Granzyme B / IFN-α / IFN-γ / IL-1rα / IL-1α / IL-1β / IL-2 / IL-3 / IL-4 / IL-5 / IL-6 / IL-7 / IL-10 / IL-12p70 / IL-13 / IL-15 / IL-17A / IL-33 / TNF-α / RANTES: pg/mL, negative-control amount subtracted; CXCL2/GROβ / CXCL10/IP-10 / CCL2/MCP-1 / CCL3/MIP-1α / CCL4/MIP-1β: unit not given beside the values; conditions: secretion by bulk TILs after peptide stimulation; sheet 1e
Description: Fig. 1 Elution of HLA class II-presented bacterial peptides from 19 glioblastomas and the stimulatory effect of IPdBPs on bulk TILs. a, Schematic of the immunopeptidome analyses of glioblastoma tissue, from which eluted peptides were annotated using the UniProt bacteria database (1). TILs or peripheral memory T cells were stimulated with IPdBPs (2 and 3). LC–MS, liquid chromatography–mass spectrometry; PBMC, peripheral blood mononuclear cell. The images in panel a were created using BioRender (https://biorender.com). b, Number of unique IPdBPs in patients with glioblastoma (n = 19) (data from patient 1635WI contains both primary and recurrent tumours together), with 344 unique IPdBPs identified (left). These peptides originated from 255 and 199 unique proteins and bacteria, respectively (3 technical replicates). […] As a control, peptidome data were also annotated using human protein database to identify eluted self-peptides. As shown, most of HLA class II-bound peptides are self-(human) peptides. IPdBPs of primary (bottom left, n = 18) and recurrent (bottom right, n = 23) tumours were separately annotated to their source bacteria at the phylum level. d, Bulk TILs (patient 1635WI) were stimulated with IPdBPs (See Supplementary Table 8), each in five replicate wells, and proliferation was measured after 5 days via ^3H-thymidine incorporation. […] The data are expressed as the mean value of all wells ± s.e.m. SIN3A* peptide was used as a positive control as TILs recognize this tumour antigen. T cells with APCs without any stimuli were used as a negative control. e, Heatmap of cytokine and chemokine secretion of TILs stimulated with three IPdBPs, which weakly stimulated proliferation. The secretion of each cytokine and chemokine was calculated by subtracting the corresponding cytokine and chemokine amount (pg ml^−1) of the negative control. TILs with APCs without any stimuli were used as a negative control. Also see Extended Data Fig. 1. Source data
(§1) Supernatants from each experiment were harvested a day before adding thymidine and frozen at −20 °C. Cytokines were measured using ELISA for human IFNγ ELISA MAX (BioLegend), human GM-CSF DuoSet ELISA (R&D Systems) and bead-based assays. A Synergy H1 hybrid multi-mode reader (Agilent) was used to measure the absorbance. The LEGENDplex Multi-analyte Flow Assay kit (BioLegend) is a 13-plex human TH cytokine panel, which includes IFNγ, TNF, IL-2, IL-4, IL-5, IL-6, IL-9, IL-10, IL-13, IL-17A, IL-17F, IL-21 and IL-22. […] LSR Fortessa Flow Cytometer (BD Biosciences) was used to measure cytokines, and data were analysed using FlowJo (Tree Star). The Human XL Cytokine Luminex Performance Assay Fixed Panel (R&D Systems) contains 45 analytes covering a broad range of various chemokines and cytokines.

TCC88 = experiment: Cytokine and chemokine secretion of TCC88 after peptide stimulation; conditions: TCC88 supernatant after peptide stimulation; no peptide control subtracted; Fig. 3e
Description: Fig. 3 Bacteria-derived and microbiota-derived peptides can stimulate TCC88 as well as the tumour antigen. a, Peptides with the highest predicted stimulatory scores were identified by searching various databases (see Methods). Numbers of unique 10-mer peptides within each database, synthesized peptides, TCC88 stimulatory peptides and the corresponding percentage of stimulatory peptides within each database are shown. […] Cytokine and chemokine secretion of TCC88 was examined and compared upon stimulation with these three different antigens. A specific amount of each cytokine and chemokine (pg ml^−1) was calculated by subtracting the cytokines in the negative control cultures (no peptide control). f, Cytotoxicity of TCC88 against the autologous tumour cell line after stimulation with 2 µM of SIN3A* and HGM3 (data represent the mean percentage of two replicate wells). E:T, effector to target. g, TCC88 was tested with HGM3 (10 µM) or SIN3A* (10 µM) peptides or both together (each 10 µM), and ^3H-thymidine incorporation was measured after 3 days (data represent the mean SI value of three replicate wells ± s.e.m.). Also see Extended Data Figs. 3 and 4. Source data
as §1

## QLEFNHAIAS [HB2, UniProt bacteria database peptide]
[1]; replicate 1
  Proliferation (SI) of sorted CD4+ TILs: 1.556
[1]; replicate 2
  Proliferation (SI) of sorted CD4+ TILs: 1.363
[1]; replicate 3
  Proliferation (SI) of sorted CD4+ TILs: 1.455

## VFAIDRAGLVGEDGPT [Peptidome.Bac 5]
[2]
  CCL2/MCP-1: 40.48
  CCL3/MIP-1α: 7.07
  CCL4/MIP-1β: 0
  CCL11/Eotaxin: 0
  CCL19/MIP-3β: 0
  CCL20/MIP-3α: 0
  CD40 Ligand: 0
  CXCL1/GROα: 0
  CXCL2/GROβ: 5.86
  CXCL8/IL-8: 0
  CXCL10/IP-10: 62.72
  Flt-3 Ligand: 1.13
  GM-CSF: 16.51
  Granzyme B: 0
  IFN-α: 0
  IFN-γ: 0
  IL-1rα: 212.62
  IL-1α: 0
  IL-1β: 0
  IL-2: 0
  IL-3: 0
  IL-4: 0
  IL-5: 0
  IL-6: 8.61
  IL-7: 0.34
  IL-10: 0
  IL-12p70: 0
  IL-13: 16.57
  IL-15: 0
  IL-17A: 0
  IL-17E/IL-25: 0
  IL-33: 0
  RANTES: 0
  TNF-α: 24.29

## QALVTLEENAVIG [Peptidome.Bac 14]
[2]
  CCL2/MCP-1: 351.37
  CCL3/MIP-1α: 23.58
  CCL4/MIP-1β: 78.06
  CCL11/Eotaxin: 0
  CCL19/MIP-3β: 2.57
  CCL20/MIP-3α: 4.22
  CD40 Ligand: 666.28
  CXCL1/GROα: 68.11
  CXCL2/GROβ: 60.34
  CXCL8/IL-8: 917.52
  CXCL10/IP-10: 111.72
  Flt-3 Ligand: 48.51
  GM-CSF: 38.36
  Granzyme B: 0
  IFN-α: 0
  IFN-γ: 8.17
  IL-1rα: 700.66
  IL-1α: 0
  IL-1β: 0
  IL-2: 2.34
  IL-3: 0.97
  IL-4: 0
  IL-5: 0
  IL-6: 110.14
  IL-7: 0.64
  IL-10: 11.57
  IL-12p70: 0
  IL-13: 23.19
  IL-15: 0.56
  IL-17A: 0
  IL-17E/IL-25: 0
  IL-33: 4.57
  RANTES: 0
  TNF-α: 26.86

## AGPVVAAAVILKEDC [Peptidome.Bac 7]
[2]
  CCL2/MCP-1: 11.43
  CCL3/MIP-1α: 1
  CCL4/MIP-1β: 0
  CCL11/Eotaxin: 0
  CCL19/MIP-3β: 2.91
  CCL20/MIP-3α: 3.7
  CD40 Ligand: 994.39
  CXCL1/GROα: 4.06
  CXCL2/GROβ: 18.18
  CXCL8/IL-8: 0
  CXCL10/IP-10: 68.01
  Flt-3 Ligand: 8.98
  GM-CSF: 20.54
  Granzyme B: 0
  IFN-α: 0
  IFN-γ: 18.67
  IL-1rα: 382.82
  IL-1α: 0
  IL-1β: 0
  IL-2: 0
  IL-3: 10.62
  IL-4: 0
  IL-5: 0
  IL-6: 16.87
  IL-7: 1.18
  IL-10: 11.57
  IL-12p70: 2.8
  IL-13: 7.47
  IL-15: 0.56
  IL-17A: 0
  IL-17E/IL-25: 0
  IL-33: 0
  RANTES: 0
  TNF-α: 9.2

## LIVFNHNCLK [HB84, UniProt bacteria database peptide]
TCC88
  CCL20/MIP-3α: 8.75 pg/mL
  CD40 Ligand: 1473.06 pg/mL
  CXCL1/GROα: 73.57 pg/mL
  CXCL2/GROβ: 49.19 pg/mL
  CXCL8/IL-8: 0 pg/mL
  CXCL10/IP-10: 104.46 pg/mL
  Flt-3 Ligand: 100.29 pg/mL
  Fractalkine: 347.74 pg/mL
  GM-CSF: 5082.78 pg/mL
  Granzyme B: 2479.01 pg/mL
  IFN-α: 2.75 pg/mL
  IFN-γ: 910.88 pg/mL
  IL-1rα: 520.19 pg/mL
  IL-1α: 12.29 pg/mL
  IL-1β: 17.01 pg/mL
  IL-2: 167.02 pg/mL
  IL-3: 131.91 pg/mL
  IL-4: 71.31 pg/mL
  IL-5: 29.89 pg/mL
  IL-6: 102.19 pg/mL
  IL-7: 0.74 pg/mL
  IL-10: 2358.6 pg/mL
  IL-12p70: 19.71 pg/mL
  IL-13: 1338.92 pg/mL
  IL-15: 2.33 pg/mL
  IL-17A: 1.97 pg/mL
  IL-17E/IL-25: 0 pg/mL
  IL-33: 15.02 pg/mL
  TNF-α: 3267.52 pg/mL
